# Patent US20260001914A1, “MACROCYCLIC PEPTIDES TARGETING KRAS” (Merck Sharp & Dohme LLC, priority 2022, published 2026)
# *1 amine or outer side, *2 acyl side, *3 side chain or, on linkers, in order; H or OH if unused. Where a SMILES comes first, the peptide text is derived from it. Bridges are numbered along the chain shown (N, C = ends). [ ]: non-standard residue; d: D form. X34 = O=C(C[C@@H](Cc1ccccc1)C(=O)[*:2])C12CC(CN[*:1])(C1)C2; Phe(4-guanidino) = N=C(N)Nc1ccc(C[C@H](N)C(=O)O)cc1; Ala(pyrimidin-5-yl) = N[C@@H](Cc1cncnc1)C(=O)O; NMe3Pal(6-Me) = CN[C@@H](Cc1ccc(C)nc1)C(=O)O; Ala(thiazol-5-yl) = N[C@@H](Cc1cncs1)C(=O)O; NMePhe(3-Me) = CN[C@@H](Cc1cccc(C)c1)C(=O)O; X11 = CC(C)(F)CC[C@H](N[*:1])C(=O)[*:2]; X15 = O=C([C@H](Cc1cnccc1F)N[*:1])[*:2]; Nle(5,5-F2) = CC(F)(F)CC[C@H](N)C(=O)O; Phe(2-CN) = N#Cc1ccccc1C[C@H](N)C(=O)O; Phe(4-F) = N[C@@H](Cc1ccc(F)cc1)C(=O)O; Phe(2-F) = N[C@@H](Cc1ccccc1F)C(=O)O; X31 = O=C([C@H](CCC1CC1)N[*:1])[*:2]; NMe3Pal = CN[C@@H](Cc1cccnc1)C(=O)O; X1 = O=C(C12CC(CN[*:1])(C1)C2)[*:2]; Aha = [N-]=[N+]=NCC[C@H](N)C(=O)O; NMeOrn(Me) = CNCCC[C@H](NC)C(=O)O; Ala(cPr) = N[C@@H](CC1CC1)C(=O)O; NMeF = CN[C@@H](Cc1ccccc1)C(=O)O; PhLac = O=C(O)[C@@H](O)Cc1ccccc1; 3Pal = N[C@@H](Cc1cccnc1)C(=O)O; Ahp(2) = CCCCC[C@H](N)C(=O)O; Cba = N[C@@H](CC1CCC1)C(=O)O; hLeu = CC(C)CC[C@H](N)C(=O)O; NMeS = CN[C@@H](CO)C(=O)O; αMeC = C[C@](N)(CS)C(=O)O; NMeA = CN[C@@H](C)C(=O)O; Nle = CCCC[C@H](N)C(=O)O
# Target: phosphorylation levels of ERK1/2 in AsPC-1 (homozygous KRAS-G12D) cells (Homo sapiens, UniProt P01116, G12D)
# Sequence (P01116 1-186 G12D): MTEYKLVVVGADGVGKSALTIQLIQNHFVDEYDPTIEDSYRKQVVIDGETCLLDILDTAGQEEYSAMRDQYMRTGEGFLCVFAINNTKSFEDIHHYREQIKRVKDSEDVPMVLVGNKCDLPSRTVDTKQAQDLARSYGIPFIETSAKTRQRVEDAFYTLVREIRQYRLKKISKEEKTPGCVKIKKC
# Test: Cellular phospho-ERK assay in AsPC-1 cells (Alpha Screen), assay medium without fetal bovine serum;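 further: signal taken as phospho-ERK over total ERK per well, both detected in one multiplex bead assay, EC50 from four-parameter logistic fit of dose-response curves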
# Assay type: cell-based
# Conditions: phospho-ERK AlphaScreen, 18 h
row,SMILES,EC50
1,"C[C@H]1C(=O)N[C@@H](Cc2cncnc2)C(=O)N[C@@H](CC2CC2)C(=O)N[C@@H](Cc2ccccc2F)C(=O)N[C@@H](CCC(C)(F)F)C(=O)N(C)[C@@H](Cc2ccccc2)C(=O)NCC23CC(C2)(C3)C(=O)C[C@@H](Cc2ccccc2)C(=O)N1C [compound 290, cyclo(CPhe-NMeA~PyrimAla-cPrA-Phe2F-Nle3F2-NMeF-amBCP)] (cyclo([Ala(cPr)][Phe(2-F)][Nle(5,5-F2)][NMeF][X34][NMeA][Ala(pyrimidin-5-yl)]))",1.07 µM
2,"CCCCC[C@@H]1NC(=O)[C@H](Cc2ccc(OC)cc2)NC(=O)[C@H](CC2CCC2)NC(=O)[C@H](Cc2cncs2)NC(=O)[C@H](CCCNC(=N)N)NC(=O)[C@H](Cc2ccccc2)NC(=O)CSC[C@@](C)(C(N)=O)NC(=O)[C@H](Cc2ccccc2)N(C)C1=O [compound 363, cyclo(F-R-TZAla-cBuA-TyrOMe-Ahp-NMeF-aMeCl-ClAc)] ({CH2CO}-FR[Ala(thiazol-5-yl)][Cba]Y(Me)[Ahp(2)][NMeF][αMeC]-NH2; thioether N-8)",> 50.8 µM
3,"CCCCC[C@@H]1NC(=O)[C@H](Cc2ccc(OC)cc2)NC(=O)[C@H](CC2CCC2)NC(=O)[C@H](Cc2ccoc2)NC(=O)[C@H](CCCNC(=N)N)NC(=O)[C@H](Cc2ccccc2)NC(=O)CSC[C@@](C)(C(N)=O)NC(=O)[C@H](Cc2ccccc2)N(C)C1=O [compound 371, cyclo(F-R-Ala3Fur-cBuA-TyrOMe-Ahp-NMeF-aMeCl-ClAc)]",> 50.8 µM
4,"CCCC[C@@H]1NC(=O)[C@H](Cc2cccnc2)NC(=O)[C@H](COC)N(C)C(=O)[C@H](Cc2ccccc2)OC(=O)C23CC(CNC(=O)[C@H](Cc4cccnc4)N(C)C(=O)[C@H](CCCC)NC(=O)[C@H](Cc4ccccc4F)NC1=O)(C2)C3 [compound 255, cyclo(FLac-nMeSMe-3Pal-Nle-Phe2F-Nle-NMe3Pal-amBCP)] (cyclo([3Pal][Nle][Phe(2-F)][Nle][NMe3Pal][X1][PhLac][NMeS](Me)))",> 50.8 µM
5,"CCCCC[C@@H]1NC(=O)[C@H](Cc2ccc(OC)cc2)NC(=O)[C@H](CC2CCC2)NC(=O)[C@H](Cc2cnn(C)c2)NC(=O)[C@H](CCCNC(=N)N)NC(=O)[C@H](Cc2ccccc2)NC(=O)CSC[C@@](C)(C(N)=O)NC(=O)[C@H](Cc2ccccc2)N(C)C1=O [compound 372, cyclo(F-R-Ala4PyzlMe-cBuA-TyrOMe-Ahp-NMeF-aMeCl-ClAc)]",> 50.8 µM
6,"CCCCC[C@@H]1NC(=O)[C@H](Cc2ccccc2C#N)NC(=O)[C@H](CC2CCC2)NC(=O)[C@H](Cc2cccnc2)NC(=O)[C@H](CCCNC(=N)N)NC(=O)[C@H](Cc2ccccc2)NC(=O)CSC[C@@](C)(C(N)=O)NC(=O)[C@H](Cc2ccccc2)N(C)C1=O [compound 375, cyclo(F-R-3Pal-cBuA-Phe2CN-Ahp-NMeF-aMeCl-ClAc)] ({CH2CO}-FR[3Pal][Cba][Phe(2-CN)][Ahp(2)][NMeF][αMeC]-NH2; thioether N-8)",> 50.8 µM
7,"CCCC[C@@H]1NC(=O)[C@H](Cc2cccnc2)NC(=O)[C@H](C)N(C)C(=O)[C@H](Cc2ccc(O)cc2)NC(=O)C23CC(CNC(=O)[C@H](Cc4cccnc4)N(C)C(=O)[C@H](CCCC)NC(=O)[C@H](Cc4ccccc4F)NC1=O)(C2)C3 [compound 168, cyclo(Y-NMeA-3Pal-Nle-Phe2F-Nle-NMe3Pal-amBCP)] (cyclo(Y[NMeA][3Pal][Nle][Phe(2-F)][Nle][NMe3Pal][X1]))",46.4 µM
8,"CCCCC[C@@H]1NC(=O)[C@H](Cc2ccc(OC)cc2)NC(=O)[C@H](CC2CCC2)NC(=O)[C@H](Cc2cncnc2)NC(=O)[C@H](CCCNC)N(C)C(=O)[C@H](Cc2ccccc2)NC(=O)CSC[C@@](C)(C(N)=O)NC(=O)[C@H](Cc2ccc(C)nc2)N(C)C1=O [compound 394, cyclo(F-NMeOmMe-PyrimAla-cBuA-TyrOMe-Ahp-NMe3Pal4Me-aMeCl-ClAc)] ({CH2CO}-F[NMeOrn(Me)][Ala(pyrimidin-5-yl)][Cba]Y(Me)[Ahp(2)][NMe3Pal(6-Me)][αMeC]-NH2; thioether N-8)",> 50.8 µM
9,"CCCC[C@@H]1NC(=O)[C@H](Cc2ccccc2F)NC(=O)[C@H](CCC(C)C)NC(=O)[C@H](Cc2cncnc2)NC(=O)[C@H](C)N(C)C(=O)[C@H](Cc2ccccc2)OC(=O)C23CC(CNC(=O)[C@H](Cc4cccnc4)N(C)C1=O)(C2)C3 [compound 127, cyclo(FLac-NMeA-PyrimAla-hL-Phe2F-Nle-NMe3Pal-amBCP)] (cyclo([NMe3Pal][X1][PhLac][NMeA][Ala(pyrimidin-5-yl)][hLeu][Phe(2-F)][Nle]))",> 50.8 µM
10,"Cc1cccc(C[C@H]2C(=O)NCC34CC(C3)(C4)C(=O)O[C@@H](Cc3ccccc3)C(=O)N(C)[C@@H](C)C(=O)N[C@@H](Cc3cncnc3)C(=O)N[C@@H](CC3CC3)C(=O)N[C@@H](Cc3cnccc3F)C(=O)N[C@@H](CCC(C)C)C(=O)N2C)c1 [compound 278, cyclo(FLac-NMeA-PyrimAla-cPrA-3Pal6F-hL-NMePhe3Me-amBCP)] (cyclo([Ala(cPr)][X15][hLeu][NMePhe(3-Me)][X1][PhLac][NMeA][Ala(pyrimidin-5-yl)]))",4 µM
11,"CCCC[C@@H]1NC(=O)[C@H](Cc2ccccc2F)NC(=O)C(CC2CC(F)(F)C2)NC(=O)[C@H](Cc2cncnc2)NC(=O)[C@H](C)N(C)C(=O)[C@H](Cc2ccccc2)OC(=O)C23CC(CNC(=O)[C@H](Cc4cccnc4)N(C)C1=O)(C2)C3 (single isomer, unassigned) [compound 123, cyclo(FLac-NMeA-PyrimAla-rF2Cba-Phe2F-Nle-NMe3Pal-amBCP)]",> 50.8 µM
12,"CCCCC[C@@H]1NC(=O)[C@H](Cc2ccc(OC)cc2)NC(=O)[C@H](CC2CCC2)NC(=O)[C@H](Cc2ccc(NC(=N)N)cc2)NC(=O)[C@H](CCCNC)N(C)C(=O)[C@H](Cc2ccccc2)NC(=O)CSC[C@@](C)(C(N)=O)NC(=O)[C@H](Cc2ccccc2)N(C)C1=O [compound 385, cyclo(F-NMeOrnMe-Phe4Gn-cBuA-TyrOMe-Ahp-NMeF-aMeCl-ClAc)] ({CH2CO}-F[NMeOrn(Me)][Phe(4-guanidino)][Cba]Y(Me)[Ahp(2)][NMeF][αMeC]-NH2; thioether N-8)",> 50.8 µM
13,"CCCC[C@@H]1NC(=O)[C@H](C(C)C)NC(=O)[C@H](CC2CCC2)NC(=O)[C@H](Cc2cccnc2)NC(=O)[C@H](CCN=[N+]=[N-])NC(=O)[C@H](Cc2ccccc2)NC(=O)C23CC(CNC(=O)[C@H](Cc4cccnc4)N(C)C1=O)(C2)C3 [compound 113, cyclo(F-DabN3~3Pal-cBuA-V-Nle-NMe3Pal-amBCP)] (cyclo(F[Aha][3Pal][Cba]V[Nle][NMe3Pal][X1]))",> 50.8 µM
14,"C[C@H]1C(=O)N[C@@H](Cc2cncnc2)C(=O)N[C@@H](CC2CC2)C(=O)N[C@@H](Cc2ccccc2F)C(=O)N[C@@H](CCC(C)(F)F)C(=O)N(C)[C@@H](Cc2ccccc2)C(=O)NCC23CC(C2)(C3)C(=O)O[C@@H](Cc2ccccc2)C(=O)N1C [compound 276, cyclo(FLac-NMeA-PyrimAla-cPrA-Phe2F-Nle3F2-NMeF-amBCP)] (cyclo([Ala(cPr)][Phe(2-F)][Nle(5,5-F2)][NMeF][X1][PhLac][NMeA][Ala(pyrimidin-5-yl)]))",0.666 µM
15,"CCCCC[C@@H]1NC(=O)[C@H](Cc2ccc(OC)cc2)NC(=O)[C@H](CC2CCC2)NC(=O)[C@H](Cc2cccnc2)NC(=O)[C@H](CCCNC(=N)N)NC(=O)[C@H](Cc2ccccc2F)NC(=O)CSC[C@@](C)(C(N)=O)NC(=O)[C@H](Cc2ccccc2)N(C)C1=O [compound 370, cyclo(Phe2F-R-3Pal-cBuA-TyrOMe-Ahp-NMeF-aMeCl-ClAc)]",> 50.8 µM
16,"C[C@H]1C(=O)N[C@@H](Cc2cncnc2)C(=O)N[C@@H](CC2CC2)C(=O)N[C@@H](Cc2ccccc2F)C(=O)N[C@@H](CCC(C)(C)F)C(=O)N(C)[C@@H](Cc2ccccc2)C(=O)NCC23CC(C2)(C3)C(=O)C[C@@H](Cc2ccccc2)C(=O)N1C [compound 273, cyclo(CPhe-NMeA-PyrimAla-cPrA-Phe2F-hL3F-NMeF-amBCP)] (cyclo([Ala(cPr)][Phe(2-F)][X11][NMeF][X34][NMeA][Ala(pyrimidin-5-yl)]))",1.23 µM
17,"C[C@H]1C(=O)N[C@@H](Cc2cncnc2)C(=O)N[C@@H](CCC(C)(F)F)C(=O)N[C@@H](Cc2ccccc2F)C(=O)N[C@@H](CCC(C)(F)F)C(=O)N(C)[C@@H](Cc2ccccc2)C(=O)NCC23CC(C2)(C3)C(=O)O[C@@H](Cc2ccccc2)C(=O)N1C [compound 288, cyclo(FLac-NMeA-PyrimAla-Nle3F2-Phe2F-Nle3F2-NMeF-amBCP)] (cyclo([NMeA][Ala(pyrimidin-5-yl)][Nle(5,5-F2)][Phe(2-F)][Nle(5,5-F2)][NMeF][X1][PhLac]))",6.61 µM
18,"CCCCC[C@@H]1NC(=O)[C@H](Cc2ccc(OC)cc2)NC(=O)[C@H](CC2CCC2)NC(=O)[C@H](Cc2ccn(C)n2)NC(=O)[C@H](CCCNC(=N)N)NC(=O)[C@H](Cc2ccccc2)NC(=O)CSC[C@@](C)(C(N)=O)NC(=O)[C@H](Cc2ccccc2)N(C)C1=O [compound 362, cyclo(F-R-MePyzAla-cBuA-TyrOMe-Ahp-NMeF-aMeCl-ClAc)]",> 50.8 µM
19,"CC(C)CC[C@@H]1NC(=O)[C@H](Cc2ccccc2F)NC(=O)[C@H](CC2CCC2)NC(=O)[C@H](Cc2cncnc2)NC(=O)[C@H](C)N(C)C(=O)[C@H](Cc2ccccc2)OC(=O)C23CC(CNC(=O)[C@H](Cc4ccccc4)N(C)C1=O)(C2)C3 [compound 134, cyclo(FLac-NMeA-PyrimAla-cBuA-Phe2F-hL-NMeF-amBCP)] (cyclo([Cba][Phe(2-F)][hLeu][NMeF][X1][PhLac][NMeA][Ala(pyrimidin-5-yl)]))",0.33 µM
20,"Cc1cccc(C[C@H]2C(=O)NCC34CC(C3)(C4)C(=O)O[C@@H](Cc3ccccc3)C(=O)N(C)[C@@H](C)C(=O)N[C@@H](Cc3cncnc3)C(=O)N[C@@H](CC3CC3)C(=O)N[C@@H](Cc3ccccc3F)C(=O)N[C@@H](CCC3CC3)C(=O)N2C)c1 [compound 334, cyclo(FLac-NMeA-PyrimAla-cPrA-Phe2F-hcPrA-NMePhe3Me-amBCP)] (cyclo([Ala(cPr)][Phe(2-F)][X31][NMePhe(3-Me)][X1][PhLac][NMeA][Ala(pyrimidin-5-yl)]))",0.224 µM
21,"CCCC[C@@H]1NC(=O)[C@H](Cc2cccnc2)NC(=O)[C@H](C)N(C)C(=O)[C@H](Cc2ccc(F)cc2)NC(=O)C23CC(CNC(=O)[C@H](Cc4cccnc4)N(C)C(=O)[C@H](CCCC)NC(=O)[C@H](Cc4ccccc4F)NC1=O)(C2)C3 [compound 167, cyclo(Phe4F-NMeA-3Pal-Nle-Phe2F-Nle-NMe3Pal-amBCP)] (cyclo([3Pal][Nle][Phe(2-F)][Nle][NMe3Pal][X1][Phe(4-F)][NMeA]))",42.8 µM
